Data taken from patent US7629172B2, “Entrapped binding protein as biosensors” (Becton, Dickinson and Company, priority 2002, dated 2009).

Legend:
[1] = Change in fluorescence of reporter-labeled GGBP mutants in solution on glucose addition; format: biochemical; conditions: GGBP-H6 NBD
Method: Labeled mutated maltose binding protein S337C MBP with fluorophore reporter probe NBD used herein in accordance with the procedure set forth by Cass, A. et al. (Anal. Chem. 1994, 66, 3840-3847). Fluorescence emission spectra of mutated, labeled protein was measured using an SLM Aminco fluorimeter (Ontario, Canada) with slit settings of 8 and 4 for excitation and settings of 5 and 5 on the MC250 emission monochromator to compare the ligand-binding performance of the entrapped fluorophore-labeled proteins in various matrixes to the performance of the same proteins in solution. The initial fluorescence emission intensity is defined as Io. The relative ratio of the emission intensity maxima in the presence of the protein's respective ligand (If) to the ligand's absence (Io) is defined as ΔF.
This example describes generically the labeling of binding protein with reporter probe. An aliquot of mutant GGBP containing cysteine (4.0 nmol) in PBS was treated with 2 mM dithiothreitol (5 μL, 10 nmol) for 30 min. A stock solution of N,N′-dimethyl-N-(iodoacetyl)-N′-(7-nitrobenz-2-oxa-1,3-diazol-4-yl)ethylenediamine (IANBD amide, 0.5 mg) was prepared in DMSO (100 μL, 11.9 mM) and 3.36 μL (40 nmol) was added to the protein. The reaction proceeded at room temperature for 4 h on a Dynal rotamix in the dark. The labeled protein was purified by gel filtration on a NAP-5 column (Amersham Pharmacia). The labeling rations were determined using an estimated extinction coefficient (50 mM^−1 cm^−1) for GGBP that was calculated in GeneWorks 2.45 (IntelliGenetics), ε478 (IANBD amide)=25 mM^−1cm^−1), and a measurement of O.D. for a standard solution of IANBD amide at 280 nm and 478 nm. The dye concentration in the protein was calculated as […]. The absorbance of protein at 280 nm was calculated as Aprot(280)=Atotal(280)−Adye(280), where Adye(280)=A478×(A280/A478)standard. The concentration of protein was then […].

[2] = GGBP L238C/A213C in dialysis membrane on fiber optic, reversibility of signal; format: biochemical; conditions: cycles between PBS buffer and 2 mM, 20 mM glucose; emission 521 nm; FIG. 4
Method: This example describes the immobilization of a biosensor of the instant invention into a dialysis membrane matrix and the ability of the matrix to provide reversible and continuous readings. Using a Varian Eclipse fluorimeter with a fiber optic attachment, GGBP L238C/A213C protein (2 μM in PBS buffer) entrapped within a dialysis membrane having a molecular cut-off of 3500 Daltons affixed to the distal end of the fiber. Solutions were prepared containing PBS buffer, 2 mM, and 20 mM glucose in PBS buffer. With the probe in PBS solution, readings were recorded at 0.02 seconds intervals of the emission wavelength 521 nm, followed by insertion of the fiber into the glucose solutions.

[3] = Binding constant (Kd) by titration of glucose into labeled protein solution
Method: (§1) Binding constants were determined by titration of increasing concentrations of glucose into a protein solution with mixing following each addition of glucose. Slit settings were the same as listed above. The Kd was determined from the following relationships as adapted from Pisarchick and Thompson (1990):
where F is fluorescence intensity, Finf is fluorescence at infinity, F0 is fluorescence at zero glucose, and x is the free concentration of glucose ([Glc]free) as determined by the relationship:
where [Glc]tot and [Prot]tot are the total concentrations of glucose and protein, respectively.

[4] = ΔF of labeled GGBP entrapped in optimized GMSC sol-gel (96 well microplate); format: biochemical
Method: (§2) Entrapment Of Binding Proteins In GMSC Sol-Gels Containing Functionalized Silicone Additives (FSA) and Polymers. This example describes the addition of polymer and organic polyol additives to optimize the GMSC sol-gels for entrapping binding proteins to both maintain and enhance their spectral properties upon ligand binding. The binding proteins were labeled with a fluorophore (as described in example 3). The protein solutions were added during the final hydrolysis/gelling step described previously to produce final concentrations of 2-4 μM protein within the sol-gel. The polymer additives and FSA's were obtained from Sigma-Aldrich Chemicals (St. Louis, Mo.). Polymer additives were evaluated in amounts between 0 to about 30 wt. Functionalized silicone additives (FSA) were evaluated as additives to the GMSC sol-gels in amounts from 0 to about 0.6% mole ratio. Thus, rotary evaporation of the GMSC reagent to remove methanol from its storage solution was followed by reconstitution in water in a 1:1 ratio by weight. […] Fluorescence emission was measured with a Varian Cary Eclipse scanning fluorometer with microwell plate adapter (Varian Instruments, Victoria, Australia). Excitation was at 475 nm and emission recorded from 500 to 600 nm, typically monitoring emission maximum peak fluorescence. […]

[5] = Kd of labeled GGBP entrapped in optimized GMSC sol-gel; format: binding; conditions: protein entrapped in optimized sol-gel formulation
Method: as §1
as §2, with “The polymer additives and FSA's were obtained from Sigma-Aldrich Chemicals (St. Louis, Mo.).” left out, “ratio.” for “ratio. Thus, rotary evaporation of the GMSC reagent to remove methanol from its storage solution was followed by reconstitution in water in a 1:1 ratio by weight.”

[6] = GGBP H152C entrapped in UV cross-linked SbQ-PVA hydrogel, glucose challenge; format: biochemical
Method: This example describes the entrapment of GGBP H152C in UV cross-linked hydrogel matrix and the effect of the matrix on the fluorescence change and binding affinity. In this experiment SbQ-PVA from Polysciences Inc. was added 100 ul of PBS buffer and mixed for one hour to mix in a rotary mixer. 80 ul of this solution was then mixed with 20 ul of labeled protein. Final protein concentration was spectroscopically determined to be 0.15 mg/ml. After mixing, aliquiots were dispensed into 96-well plates and dried in a chamber maintained at 20% humidity for 12 h followed by curing with UV light. Wells containing protein encapsulated in matrix were challenge with 2 ul of 10 mM glucose and compared to protein solution without matrix having equivalent protein loading.

[7] = ΔF of H152 GGBP-H6 NBD entrapped in sol-gel matrixes vs solution; format: biochemical; conditions: ratio If/Io, matrix containing H152 GGBP-H6 NBD
[8] = from 0 to 1 mM Glc at 0.5 μM [NBD]
[9] = GGBP-H6 NBD, solution, measured at 0.1 μM [dye], read-out: Solution Kd
[10] = protein in solution, read-out: Kd (mM) [solution value]

| Molecule | Kd [3, 9] | Δ F(%) [1, 8] | other results |
| --- | --- | --- | --- |
| A213C, L238C: GGBP-H6 NBD double mutant, cysteines at positions 213 and 238 | 6000 µM | 24% | Δ F(%) ([1]; measured from 0 to 100 mM Glc): 67%; reversibility of signal [2]: return of initial signal; Kd [3, 10]: 6000 µM; ΔF (enhancement vs. solution) ([4]; sugar challenge 100 mM glucose): 2.36x; Kd [5]: 2200 µM |
| D14C: GGBP-H6 NBD mutant, cysteine substituted for aspartic acid at position 14 | – | 1% | – |
| D287C: GGBP-H6 NBD mutant, cysteine substituted for aspartic acid at position 287 | – | 4% | – |
| E149C, L238S: GGBP-H6 NBD double mutant | 80 µM | – | – |
| E149C, N256S: GGBP-H6 NBD double mutant | – | 1% | – |
| H 152 C GGBP-NBD: glucose/galactose binding protein with cysteine at position 152, His6 tag, labeled with NBD | – | – | Kd of the entrapped protein ([6]; SbQ-PVA UV cross-linked hydrogel): comparable to that obtained in solution; response to the analyte (fluorescence) vs solution ([6]; SbQ-PVA hydrogel, 10 mM glucose challenge, FIG. 3): equivalent to that obtained in solution; ΔF (10 mM Glucose) [7]: 1.53; Kd [3, 10]: 70 µM; ΔF (enhancement vs. solution) ([4]; sugar challenge 10 mM glucose): 2.93x; Kd [5]: 360 µM |
| K11C: GGBP-H6 NBD mutant, cysteine substituted for lysine at position 11 | – | 10% | – |
| K113C: GGBP-H6 NBD mutant, cysteine substituted for lysine at position 113 | – | 15% | – |
| L238C: GGBP-H6 NBD mutant, cysteine substituted for leucine at position 238 | – | – | Δ F(%) ([1]; measured from 0 to 100 mM Glc): +3% |
| N43C: GGBP-H6 NBD mutant, cysteine substituted for asparagine at position 43 | 0.2 µM | 40% | – |
| R292C: GGBP-H6 NBD mutant, cysteine substituted for arginine at position 292 | 0.8 µM | – | – |
| S112C, L238S: GGBP-H6 NBD double mutant | – | 6% | – |
| V19C: GGBP-H6 NBD mutant, cysteine substituted for valine at position 19 | 0.1 µM | – | – |
| Y107C: GGBP-H6 NBD mutant, cysteine substituted for tyrosine at position 107 | 1 µM | – | – |
| wild type: wild type E. coli galactose/glucose binding protein (GGBP-H6), intrinsic fluorescence [reference compound] | 0.2 µM | – | – |
| E149C, M182C, A213C, L238S: GGBP-H6 NBD mutant with four amino acid substitutions (protein, UniProt P0AEE5 24-332, looked up, variant E149C M182C A213C L238S, His6 tag, NBD fluorophore label, GGBP-H6 NBD mutant with four amino acid substitutions) D-galactose/methyl-galactoside …: ADTRIGVTIYKYDDNFMSVVRKAIEQDAKAAPDVQLLMNDSQNDQSKQNDQIDVLLAKGVKALAINLVDPAAAGTVIEKARGQNVPVVFFNKEPSRKALDSYDKAYYVGTDSKESGIIQGDLIAKHWAANQGWDLNKDGQIQFVLLKGCPGHPDAEARTTYVIKELNDKGIKTEQLQLDTACWDTAQAKDKMDAWLSGPNANKIEVVIANNDCMAMGAVEALKAHNKSSIPVFGVDASPEALALVKSGALAGTVLNDANNQAKATFDLAKNLADGKGAADGTNWKIDNKVVRVPYVGVDKDNLAEFSKK | – | 200% | – |

Second part, led by results:

| Kd [3, 9] | Molecule | Δ F(%) [1, 8] | other results |
| --- | --- | --- | --- |
| 35000 µM | E149C, A213R, L238S: GGBP-H6 NBD triple mutant | 500% | – |
| 1000 µM | E149C, A213R: GGBP-H6 NBD double mutant | – | – |
| 470 µM | E149C, A213S, L238S: GGBP-H6 NBD triple mutant | 480% | – |
| 0.2 µM | E149C: GGBP-H6 NBD mutant, cysteine substituted for glutamic acid at position 149 | 300% | – |
| 0.9 µM | G74C: GGBP-H6 NBD mutant, cysteine substituted for glycine at position 74 | – | – |
| 160 µM | H152C, A213S: GGBP-H6 NBD double mutant | 100% | – |
| 0.04 µM | K137C: GGBP-H6 NBD mutant, cysteine substituted for lysine at position 137 | – | – |
